The values that follow come from patent US9018208B2, “Heterocycles as potassium channel modulators” (Icagen Inc., priority 2007, dated 2015).

A word on the EC50: it is the concentration at which the effect is half-maximal.

SMILES strings stand for the structures.

One assay concerns SH-SY5Y M-currents (KCNQ2, KCNQ3 and KCNQ5). Briefly: SH-SY5Y native cell line FLIPR assay (voltage-sensitive dye DiBAC). The following applies: FLIPR assay, SH-SY5Y native cell line; Table 1; read-out: SH-SY5Y EC50. The class given is cell-based, mouse neuroblastoma, rat glioma hybrid cell line. Summed up:
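Response is peak DiBAC fluorescence change, normalised to the maximum from a positive control agent, sampled every 30 s over 25 min. Before compound addition, SH-SY5Y cells differentiated with PGE1 plus isomethylbutylxanthine were dye-loaded for 1 h in EBSS with […] DiBAC.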
In the case of `O=C(Cc1ccc(F)cc1)Nc1nc2ccc(C(F)(F)F)cn2c1C1CCCC1` [Compound 50, N-(3-cyclopentyl-6-(trifluoromethyl)imidazo[1,2-a]pyridin-2-yl)-2-(4-fluorophenyl)acetamide], the EC50 was < 500 nM.

In the case of `CC(C)(C)Cc1c(NC(=O)CC2CCCC2)nc2ccc(C(F)(F)F)cn12` [Compound 72, 2-cyclopentyl-N-(3-neopentyl-6-(trifluoromethyl)imidazo[1,2-a]pyridin-2-yl)acetamide], the EC50 was < 500 nM.

In the case of `CC(C)(C)CC(=O)Nc1nc2ccc(F)cn2c1Cc1ccc(F)cc1` [Compound 16, N-(6-fluoro-3-(4-fluorobenzyl)imidazo[1,2-a]pyridin-2-yl)-3,3-dimethylbutanamide], the EC50 was < 500 nM.

As for `O=C(Cc1ccc(F)cc1)Nc1nc2ccc(F)cn2c1Cc1ccc(F)cc1` [Compound 18, N-(6-fluoro-3-(4-fluorobenzyl)imidazo[1,2-a]pyridin-2-yl)-2-(4-fluorophenyl)acetamide], the EC50 is < 500 nM.

On to `O=C(Nc1cn2cc(F)ccc2n1)C(F)(F)F` [Compound 10, 2,2,2-trifluoro-N-(6-fluoroimidazo[1,2-a]pyridin-2-yl)acetamide], for which the EC50 was in the range of 3000 to 10000 nM.

Regarding `CC(C)(C)Cc1c(NC(=O)C2CCC(F)(F)CC2)nc2ccc(C(F)(F)F)cn12` [Compound 73, 4,4-difluoro-N-(3-neopentyl-6-(trifluoromethyl)imidazo[1,2-a]pyridin-2-yl)cyclohexanecarboxamide], the EC50 was < 500 nM.

Take `CC(C)CCc1c(NC(=O)Cc2ccccc2)nc2ccc(C(F)(F)F)cn12` [Compound 36, N-(3-isopentyl-6-(trifluoromethyl)imidazo[1,2-a]pyridin-2-yl)-2-phenylacetamide]: the 50% effective concentration (EC50) was < 500 nM.

The same assay, now with this note: FLIPR assay, SH-SY5Y native cell line; Table 2; read-out: SH-SY5Y EC50.
As for `O=C(Cc1ccc(F)cc1)Nc1nc2ccc(F)cn2c1-c1ccc(OC(F)(F)F)cc1` [Compound 154, N-(6-fluoro-3-(4-(trifluoromethoxy)phenyl)imidazo[1,2-a]pyridin-2-yl)-2-(4-fluorophenyl)acetamide], the EC50 is < 500 nM.

For the molecule `O=C(Cc1ccc(F)cc1)Nc1nc2ccc(F)cn2c1-c1cccc(Cl)c1` [Compound 148, N-(3-(3-chlorophenyl)-6-fluoroimidazo[1,2-a]pyridin-2-yl)-2-(4-fluorophenyl)acetamide], the EC50 is < 500 nM.

`CC1(CC(=O)Nc2nc3ccc(F)cn3c2-c2ccc(F)cc2)CCCC1` [Compound 179, N-(6-fluoro-3-(4-fluorophenyl)imidazo[1,2-a]pyridin-2-yl)-2-(1-methylcyclopentyl)acetamide]: the EC50 is < 500 nM.

`O=C(Cc1ccccc1)Nc1nc2ccc(C(F)(F)F)cn2c1-c1ccc(F)cc1` [Compound 119, N-(3-(4-fluorophenyl)-6-(trifluoromethyl)imidazo[1,2-a]pyridin-2-yl)-2-phenylacetamide]: the EC50 was < 500 nM.

For `O=C(Cc1ccc(Cl)cc1)Nc1nc2ccc(F)cn2c1-c1ccc(OC(F)(F)F)c(F)c1` [Compound 310, 2-(4-chlorophenyl)-N-(6-fluoro-3-(3-fluoro-4-(trifluoromethoxy)phenyl)imidazo[1,2-a]pyridin-2-yl)acetamide], the EC50 is < 500 nM.

Consider `O=C(CCOc1ccc(F)cc1)Nc1nc2ccc(F)cn2c1-c1ccc(OC(F)(F)F)cc1` [Compound 250, N-(6-fluoro-3-(4-(trifluoromethoxy)phenyl)imidazo[1,2-a]pyridin-2-yl)-3-(4-fluorophenoxy)propanamide], for which the EC50 was in the range of 500 to 3000 nM.

On to `Cc1ccc2nc(NC(=O)Cc3ccccc3)c(-c3ccc(F)cc3)n2c1` [Compound 166, N-(3-(4-fluorophenyl)-6-methylimidazo[1,2-a]pyridin-2-yl)-2-phenylacetamide], for which the 50% effective concentration (EC50) is < 500 nM.

Consider `O=C(NCCc1ccc(F)cc1)Nc1nc2ccc(F)cn2c1-c1ccc(C(F)(F)F)cc1` [Compound 213, 1-(6-fluoro-3-(4-(trifluoromethyl)phenyl)imidazo[1,2-a]pyridin-2-yl)-3-(4-fluorophenethyl)urea], for which the EC50 lay within 3000 to 10000 nM.

For `CC(CC(=O)Nc1nc2ccc(F)cn2c1-c1cc(F)cc(F)c1)C(F)(F)F` (stereo not drawn) [Compound 230, N-(3-(3,5-difluorophenyl)-6-fluoroimidazo[1,2-a]pyridin-2-yl)-4,4,4-trifluoro-3-methylbutanamide], the EC50 is 500 to 3000 nM.

Consider `CC(C)(C)CC(=O)Nc1nc2cc(Cl)c(Cl)cn2c1-c1ccc(OC(F)(F)F)cc1` [Compound 216, N-(6,7-dichloro-3-(4-(trifluoromethoxy)phenyl)imidazo[1,2-a]pyridin-2-yl)-3,3-dimethylbutanamide], for which the 50% effective concentration (EC50) was < 500 nM.

As for `O=C(CC1CCC1)Nc1nc2ccc(F)cn2c1-c1ccc(C(F)(F)F)cc1` [Compound 185, 2-cyclobutyl-N-(6-fluoro-3-(4-(trifluoromethyl)phenyl)imidazo[1,2-a]pyridin-2-yl)acetamide], the EC50 is < 500 nM.

Take `O=C(CC(F)(F)F)Nc1nc2ccc(F)cn2c1-c1ccc(OC(F)(F)F)cc1` [Compound 252, 3,3,3-trifluoro-N-(6-fluoro-3-(4-(trifluoromethoxy)phenyl)imidazo[1,2-a]pyridin-2-yl)propanamide]: the EC50 is < 500 nM.

`O=C(Cc1ccccc1)Nc1nc2cc(C(F)(F)F)ccn2c1-c1ccc(F)cc1` [Compound 112, N-(3-(4-fluorophenyl)-7-(trifluoromethyl)imidazo[1,2-a]pyridin-2-yl)-2-phenylacetamide]: the EC50 fell in the range of 500 to 3000 nM.

Take `O=C(CC1CCCC1)Nc1nc2cc(C(F)(F)F)ccn2c1-c1ccc(F)cc1F` [Compound 125, 2-cyclopentyl-N-(3-(2,4-difluorophenyl)-7-(trifluoromethyl)imidazo[1,2-a]pyridin-2-yl)acetamide]: the EC50 lay in the range of 500 to 3000 nM.

Regarding `O=C(CC1CCCC1)Nc1nc2ccc(F)cn2c1-c1ccc(C(F)(F)F)cc1` [Compound 156, 2-cyclopentyl-N-(6-fluoro-3-(4-(trifluoromethyl)phenyl)imidazo[1,2-a]pyridin-2-yl)acetamide], the EC50 was < 500 nM.

Regarding `O=C(Cc1ccccc1)Nc1nc2ccc(F)cn2c1-c1cccc(C(F)(F)F)c1` [Compound 165, N-(6-fluoro-3-(3-(trifluoromethyl)phenyl)imidazo[1,2-a]pyridin-2-yl)-2-phenylacetamide], the concentration for a half-maximal effect (EC50) is < 500 nM.

On to `O=C(Nc1nc2ccc(F)cn2c1-c1ccc(OC(F)(F)F)cc1)C1Cc2ccccc2C1` [Compound 292, N-(6-fluoro-3-(4-(trifluoromethoxy)phenyl)imidazo[1,2-a]pyridin-2-yl)-2,3-dihydro-1H-indene-2-carboxamide], for which the EC50 was 500 to 3000 nM.

With `O=C(Cc1ccc(F)cc1)Nc1nc2ccc(C(F)(F)F)cn2c1-c1ccc(F)cc1` [Compound 121, 2-(4-fluorophenyl)-N-(3-(4-fluorophenyl)-6-(trifluoromethyl)imidazo[1,2-a]pyridin-2-yl)acetamide], the EC50 was < 500 nM.

Consider `CC(C)(C)CC(=O)Nc1nc2ccc(F)cn2c1-c1cccc(OC(F)(F)F)c1` [Compound 182, N-(6-fluoro-3-(3-(trifluoromethoxy)phenyl)imidazo[1,2-a]pyridin-2-yl)-3,3 dimethylbutanamide], for which the EC50 was < 500 nM.

As for `CC(C)(C)CC(=O)Nc1nc2ncccn2c1-c1cccc(OC(F)(F)F)c1` [Compound 323, 3,3-dimethyl-N-(3-(3-(trifluoromethoxy)phenyl)imidazo[1,2-a]pyrimidin-2-yl)butanamide], the EC50 lay within 3000 to 10000 nM.

With `O=C(Cc1ccc(F)cc1)Nc1nc2ccccn2c1-c1cccc(C(F)(F)F)c1` [Compound 338, 2-(4-fluorophenyl)-N-(3-(3-(trifluoromethyl)phenyl)imidazo[1,2-a]pyridin-2-yl)acetamide], the EC50 fell in the range of 500 to 3000 nM.

`CC(C)CC(=O)Nc1nc2ccc(F)cn2c1-c1ccc(F)cc1` [Compound 133, N-(6-fluoro-3-(4-fluorophenyl)imidazo[1,2-a]pyridin-2-yl)-3-methylbutanamide]: the EC50 was 500 to 3000 nM.

Consider `CC(Oc1ccccc1)C(=O)Nc1nc2ccc(F)cn2c1-c1ccc(OC(F)(F)F)cc1` (stereo not drawn) [Compound 232, N-(6-fluoro-3-(4-(trifluoromethoxy)phenyl)imidazo[1,2-a]pyridin-2-yl)-2-phenoxypropanamide], for which the half-maximal effective concentration (EC50) is 3000 to 10000 nM.

Turning to `CC(CC(=O)Nc1nc2ncc(Cl)cn2c1-c1ccc(C(F)(F)F)cc1)C(F)(F)F` (stereo not drawn) [Compound 318, N-(6-chloro-3-(4-(trifluoromethyl)phenyl)imidazo[1,2-a]pyrimidin-2-yl)-4,4,4-trifluoro-3-methylbutanamide], the EC50 fell in the range of 500 to 3000 nM.

For `O=C(Cc1ccc(F)cc1)Nc1nc2ccccn2c1-c1ccc(F)cc1` [Compound 203, 2-(4-fluorophenyl)-N-(3-(4-fluorophenyl)imidazo[1,2-a]pyridin-2-yl)acetamide], the EC50 fell in the range of 500 to 3000 nM.

The assay is the same for the next values; noted with them: SH-SY5Y native cell line, FLIPR assay (Table 3); read-out: SH-SY5Y EC50.
With `O=C(Cc1ccc(F)cc1)Nc1nc2ccc(F)cn2c1-c1nccs1` [Compound 384, N-(6-fluoro-3-(thiazol-2-yl)imidazo[1,2-a]pyridin-2-yl)-2-(4-fluorophenyl)acetamide], the EC50 is 500 to 3000 nM.

Regarding `CC(C)(C)CC(=O)Nc1nc2ccc(C(F)(F)F)cn2c1-c1cc(C(F)(F)F)ccn1` [Compound 398, 3,3-dimethyl-N-(6-(trifluoromethyl)-3-(4-(trifluoromethyl)pyridin-2-yl)imidazo[1,2-a]pyridin-2-yl)butanamide], the EC50 is < 500 nM.

On to `Cc1ccc2nc(NC(=O)CC(C)C(F)(F)F)c(-c3nccs3)n2n1` (stereo not drawn) [Compound 388, 4,4,4-trifluoro-3-methyl-N-(6-methyl-3-(thiazol-2-yl)imidazo[1,2-b]pyridazin-2-yl)butan amide], for which the EC50 was 3000 to 10000 nM.

`O=C(Cc1ccc(F)cc1)Nc1nc2ccccn2c1-c1cc(C(F)(F)F)ccn1` [Compound 403, 2-(4-fluorophenyl)-N-(3-(4-(trifluoromethyl)pyridin-2-yl)imidazo[1,2-a]pyridin-2-yl)acetamide]: the EC50 was < 500 nM.
